The structures appear in SMILES notation. Read-outs that look alike come from different tables or passages of the source. Where a SMILES comes first, the peptide text is derived from it.

In data set [1] the test system is ZIKV. As to the kind of experiment: Transmission electron microscopy of peptide-treated ZIKV. Particulars: 200 µM peptide, 10 min, negative staining TEM. More on the design: species or system Zika virus. The protocol:
To test this, we treated ZIKV with Yodha peptide or control peptide for 10 min and analyzed virus particles by electron microscopy.
(A) TEM micrographs of ZIKV treated with OVA (control) or Yodha peptide are shown. ZIKV were incubated with the peptides at 200 µM for just 10 min, fixed with paraformaldehyde and then processed for electron microscopy. Yodha treatment led to loss of morphology and aggregation of virus particles. (B) Enlarged images of ZIKV treated with control or Yodha peptide from (A) are shown. The data is representative of three experiments performed.
ZIKV samples were fixed with 4% buffered paraformaldehyde before negative staining. 5 µl of Zika sample was then deposited onto a 400-mesh carbon-coated copper grid that had been treated by glow-discharged for 20 s and allowed 5 min for the sample to settle in a covered glass dish. The grids with samples were then quickly washed by touching the sample side on two drops double distilled water, wick with filter paper, and then stained with 1% phosphotungstic acid (PTA) for 15 s before removing PTA with filter paper. Zika virus was imaged on a JEOL JEM-1400 transmission electron microscope (JEOL Ltd., Tokyo, Japan) equipped with a Gatan US1000 CCD camera (Gatan, Pleasanton, CA).

The next data set has as its system human red blood cells. It counts as cell-based. The procedure:
Single donor human red blood cells (Innovative Research) were washed in PBS (pH 7.4) with three times centrifugation at 500 × g for 5 min. Serially diluted frog peptides or OVA control peptide were prepared in V-bottom 96 well plates and mixed with washed 2 × 10^7 human RBC per each well for 1 h at 37 °C. PBS solution was used as a negative control (0% lysis), and 0.1% Triton X-100 in PBS was used as 100% lysis. The plates were centrifuged at 300 × g at 4 °C for 5 min to pellet the intact RBCs and supernatant of each well was measured by absorbance at 450 nm.

The test system of a further data set is DENV3. Particulars: FFA. The procedure:
(§1) Dengue virus strains 1, 2, 3 and 4 were treated with wither Yodha or control OVA peptide at (A) 50 µM (B) 160 µM concentration and the % of viral focus forming units were determined. (C) IC50 measurement of Yodha in DENVs infection by FFA. […] OVA peptide was used a negative control.
(§2) Peptides were incubated with ZIKV (100 FFU/well) for 2 h at 37 °C. This incubated mixture was used to infect Vero cells for 1.5 h at 37 °C. Cells and inoculum were overlaid with 2% methylcellulose solution (OptiMEM; Gibco) and incubated for 72 h at 37 °C. Cells were washed with PBS and fixed with a 1:1 methanol/acetone mixture for 30 min. Cells were blocked with 5% milk/PSB at room temperature for 20 min and incubated with primary antibody (anti-flavivirus mouse 4G2[10] antibody) for 2 h at 37 °C. Then, cells were incubated with secondary antibody (HRP-conjugated goat anti-mouse IgG, Cell Signaling) for 1 h at 37 °C. Cells were developed with TrueBlue Peroxidase Substrate (KPL). Plates were read on a CTL-ImmunoSpot S6 Micro analyzer.

Another data set concerns DENV1. Put plainly: Focus forming assay, dengue virus. The class given is cell-based. Particulars: 50 µM peptide, FFA. The procedure: as §1, §2
Another data set relates to DENV2. As to the kind of experiment: Focus forming assay, dengue virus. It counts as cell-based. Particulars: 50 µM peptide, FFA. The procedure:
as §1, §2

The test system of another data set is DENV4. As to the kind of experiment: Focus forming assay, dengue virus. Particulars: 50 µM peptide, FFA. It counts as cell-based. The procedure: as §1, §2
The test system of data set [2] is ZIKV P6-740 (Malaysia, 1966). As to the kind of experiment: Focus forming assay, ZIKV strain panel. Particulars: 50 µM and 100 µM peptide vs OVA control, FFA. The class given is cell-based, Zika virus. The protocol: (§3) For all our experiments in Fig. 1, we used the PRVABC59 (Puerto Rico 2015) strain of ZIKV. […] The Yodha peptide inhibited all ZIKV strains (Fig. 1H,I).
as §2

Data set [3] concerns ZIKV DakAr41524 (Senegal 1984). Put plainly: Focus forming assay, ZIKV strain panel. The class given is cell-based, Zika virus. Particulars: 50 µM and 100 µM peptide vs OVA control, FFA. The procedure: as §3, §2
In data set [4] the test system is ZIKV MR-766 (Uganda, 1947). As to the kind of experiment: Focus forming assay, ZIKV strain panel. The class given is cell-based, Zika virus. The settings on record: 50 µM and 100 µM peptide vs OVA control, FFA. The protocol: as §3, §2
Data set [5] relates to ZIKV. As to the kind of experiment: ZIKV neutralisation by mutant, enantiomer and variant peptides (strain not stated). It counts as cell-based, Zika virus. The procedure: To further characterize Yodha peptide, we generated alanine-scanning mutants of the peptide, which removes the side chain, but maintains peptide conformation, allowing for the assessment of the significance of each amino acid within the larger structure (Fig. 4A). Each of 23 mutated peptides was tested for its (a) ability to neutralize ZIKV (Fig. 4B) and (b) toxicity against human RBC, if any (Fig. 4C).
So next, we sought to determine how common this peptide or its analogs are in host defense peptides isolated from elsewhere in the world. […] We then determined the extent to which any of these variant peptides can neutralize ZIKV. […] We also generated a series of mutant Yodha peptides, including one which lacks the C terminal DDQERC, a short 12 peptide fragment that lacks the EEERGA from variant #12, and a S1P peptide that replace S1-P in the full-length Yodha (Fig. 5D) and tested their activity against ZIKV (Fig. 5D).
as §2

Consider `CC[C@H](C)[C@H](NC(=O)[C@@H](NC(=O)CNC(=O)[C@H](CC(C)C)NC(=O)[C@H](Cc1ccccc1)NC(=O)[C@H](Cc1ccccc1)NC(=O)[C@H](CC(C)C)NC(=O)[C@H](CC(C)C)NC(=O)[C@H](CC(C)C)NC(=O)[C@H](CCSC)NC(=O)[C@@H](N)CO)[C@@H](C)O)C(=O)N[C@@H](CO)C(=O)N[C@@H](CC(C)C)C(=O)N[C@@H](CO)C(=O)N[C@@H](CC(C)C)C(=O)N[C@@H](CS)C(=O)N[C@@H](CCC(N)=O)C(=O)N[C@@H](CC(=O)O)C(=O)N[C@@H](CC(=O)O)C(=O)N[C@@H](CCC(N)=O)C(=O)N[C@@H](CCC(=O)O)C(=O)N[C@@H](CCCNC(=N)N)C(=O)N[C@@H](CS)C(=O)O` [Yodha] (H-SMLLLFFLGTISLSLCQDDQERC-OH; N-terminus and C-terminus assumed), for which the “virus particle integrity by electron microscopy” value in the data set on ZIKV [1] is reported as “disruption of viral particles”. In addition, the “cytotoxicity against human erythrocytes (screen of the 12 hits)” value in the data set with human red blood cells is on record as “no cytotoxicity”. Also, the “inhibition of DENV3” value is reported as “not DENV3” with DENV3 (50 µM peptide) and “very efficient” with DENV3 (160 µM peptide). The “inhibition of DENV1” value in the data set on DENV1 was “efficiently inhibited”. Also, the “inhibition of DENV2” value with DENV2 is given as “efficiently inhibited”. Besides, in the data set with DENV4, the “inhibition of DENV4” value was “efficiently inhibited”. The “inhibition of ZIKV strain” value in [2], in [3] and in [4] was “inhibited” throughout. In addition, the “anti-viral activity against ZIKV, D- versus L-enantiomer” value in the data set on ZIKV [5] is listed as “comparable anti-viral activity”.

The values above are taken from paper PMC7804942, “The amphibian peptide Yodha is virucidal for Zika and dengue viruses” (Scientific Reports, 2021).
